Assay results reported in US8242240B2, “Anti-inflammatory compounds and uses thereof” (Yale University, priority 2000, dated 2012).
Several values for one entry are separate records, joined by “and”; a condition that tells them apart may be missing. Equal entries are not always repeated. [ ]: non-standard residue; d: D form.

Tests used:
NEMO = biological target: T1, NEMO (Homo sapiens, UniProt Q9Y6K9); assay: GST pull-down of IKKβ NBD mutants by GST-NEMO; type: binding; settings: GST pulldown assay; NBD mutations in IKKβ
T1 construct: bacterially expressed version of full length NEMO fused at its NH2-terminus to glutathione S-transferase; made in house; host or cells: bacteria (pGEX-4T1)
Excerpt: To identify the NEMO-interacting domain of IKKβ we performed in vitro pull down assays (Zhong et al., (1997) Cell 89, 413-424) using a bacterially expressed version of full length NEMO fused at its NH2-terminus to glutathione S-transferase (GST-NEMO; FIG. 1A). Various truncation mutants lacking different functional domains of IKKβ (catalytic domain, leucine zipper and helix-loop-helix; FIG. 1A) were constructed.
These mutants were labeled by in vitro translation with [^35S]-methionine (input; FIG. 1B), mixed with either GST alone or GST-NEMO, and precipitated using glutathione-agarose. […]
Further mutations in the NBD were analyzed (see Table 1) for their ability to affect NEMO binding to IKKβ using the GST pulldown assay explained in Example 3.

[1] = test system: mice (lethal Salmonella typhimurium LPS challenge); assay: Lethal lipopolysaccharide mouse model; type: in vivo, male C57BL/6 mice
Experimental: In this experiment, the ability of anti-inflammatory compounds of the invention to rescue mice challenged with a lethal amount of lipopolysaccharide (LPS) was assessed. LPS is a bacterial product that induces many of the responses that are seen in septic patients, including death. In this model, Salmonella typhimurium LPS in phosphate-buffered […] (PBS) was administered to male C57BL/6 mice by intravenous injection at a dose of 30 mg/kg (600 μg/20 g mouse). This dose was established in control experiments to be lethal in 100% of the mice that received it. Mice were treated with the test peptide by intravenous injection (in 1% dimethyl sulfoxide in PBS) immediately prior to the LPS injection and 24 hours after the LPS injection. Mice were monitored twice daily for up to 8 days after receiving LPS and the duration of survival and the number of surviving mice were recorded.

[2] = test system: mice (zymosan-induced peritonitis); assay: Zymosan-induced peritonitis in mice; type: in vivo, mice (C57BL/6NCR); settings: dexamethasone 100 mg/ml i.p. with zymosan
Experimental: In a second model, peritonitis was induced in mice by intraperitoneal (i.p.) injection of zymosan either alone or in combination with dexamethasone or the NBD peptides. For zymosan-induced peritonitis, measurement of peritoneal exudates and inflammatory cell collections from replicate groups of age and sex matched mice (C57BL/6NCR) were performed as previously described (Getting et al., (1998) Immunology 95, 625-630). Groups of animals were injected concomitantly with one ml zymosan (1 mg/ml) and either dexamethasone (100 mg/ml) or the NBD peptides (200 mg/ml). The concentration of NOX (nitrate plus nitrite) present in the inflammatory exudates was measured using a colorimetric assay kit (Alexis Corporation) according to the manufacturers protocol.

[3] = test system: mice (PMA-induced ear edema); assay: PMA-induced ear edema in mice; type: in vivo; settings: topical 40 μg/ear, 30 min before and after PMA 5 μg/ear, 6 h
Experimental: The NBD peptide was tested for its ability to inhibit inflammatory responses in animals using two distinct models of acute inflammation. In the first model, ear edema was induced in mice using phorbol-12-myristate-13-acetate (PMA) and the effects of topical administration of the NBD peptides were measured. Ear edema using PMA was induced in replicate groups of age and sex matched mice as previously described (Chang et al., (1987) Eur. J. Pharmacol. 142, 197-205). Twenty μl of either NBD peptides (200 μg/ear), dexamethasone (40 μg/ear) or vehicle (DMSO:Ethanol; 25:75 v/v) was applied topically to the right ear of mice thirty minutes before and thirty minutes after the application of 20 μl of PMA (5 μg/ear) dissolved in ethanol. Ear swelling was measured six hours after PMA application using a microgauge and expressed as the mean difference in thickness between the treated (right) and untreated (left) ears. Statistical analysis of the data was performed using the students t-test. A value of p<0.05 was considered statistically significant.

[4] = test system: mice (Concanavalin A-induced hepatitis); assay: Concanavalin A-induced hepatitis in mice; type: in vivo, male C57BL/6 mice; settings: for ALT / AST: serum 18-24 h, mean±SEM
Experimental: Forty male C57BL/6 mice weighing between 18 g and 22 g were divided into five treatment groups of eight mice each as shown below.
The mice were placed in a restrainer and injected intravenously (i.v.) in the tail with a test peptide or vehicle in 1% DMSO in PBS. The mice were then immediately injected i.v. with 15 mg/kg of concanavalin A dissolved in sterile PBS. The injection volume was 5 ml/kg (100 μI/20 g mouse) with a concanavalin A concentration of 3.0 mg/ml. The next morning (18-24 hours later), these mice were euthanized by CO2 inhalation and blood was collected by cardiac puncture. The serum was then separated and analyzed for AST and ALT.
ALT and AST values are given as Sigma-Frankel units/ml, mean±SEM.

[5] = dose 5 mg/kg i.v., number dosed 8, LPS 30 mg/kg i.v.
[6] = dose 1 mg/kg i.v., number dosed 8, LPS 30 mg/kg i.v.
[7] = dose 5 mg/kg i.v., number dosed 7, LPS 30 mg/kg i.v.
[8] = concanavalin A 15 mg/kg i.v. + 0.5 mg/kg i.v.
[9] = concanavalin A 15 mg/kg i.v. + 1 mg/kg i.v.
[10] = concanavalin A 15 mg/kg i.v. + 5 mg/kg i.v.

T1 sequence (Q9Y6K9 whole entry, the tested form may be a part): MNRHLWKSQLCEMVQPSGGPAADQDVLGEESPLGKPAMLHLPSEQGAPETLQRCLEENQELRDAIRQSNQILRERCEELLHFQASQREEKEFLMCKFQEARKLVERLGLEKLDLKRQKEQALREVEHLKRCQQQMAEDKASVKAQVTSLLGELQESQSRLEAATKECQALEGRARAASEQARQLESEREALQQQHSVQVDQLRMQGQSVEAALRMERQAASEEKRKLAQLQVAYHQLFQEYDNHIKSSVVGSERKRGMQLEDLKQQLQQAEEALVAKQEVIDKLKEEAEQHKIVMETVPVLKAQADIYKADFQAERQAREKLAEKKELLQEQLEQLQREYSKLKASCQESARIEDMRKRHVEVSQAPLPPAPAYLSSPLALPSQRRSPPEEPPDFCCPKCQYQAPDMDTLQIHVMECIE

Compound	Binds to NEMO (NEMO)	survival (day five), number of mice surviving [1, 5]	further results
H-rrmkwkkLDWSWL-NH2 (H-[dR][dR][dM][dK][dW][dK][dK]LDWSWL-NH2; SMILES CSCC[C@@H](NC(=O)[C@@H](CCCNC(=N)N)NC(=O)[C@H](N)CCCNC(=N)N)C(=O)N[C@H](CCCCN)C(=O)N[C@H](Cc1c[nH]c2ccccc12)C(=O)N[C@H](CCCCN)C(=O)N[C@H](CCCCN)C(=O)N[C@@H](CC(C)C)C(=O)N[C@@H](CC(=O)O)C(=O)N[C@@H](Cc1c[nH]c2ccccc12)C(=O)N[C@@H](CO)C(=O)N[C@@H](Cc1c[nH]c2ccccc12)C(=O)N[C@@H](CC(C)C)C(N)=O) [compound 7]	–	8	–
H-rrrrrrrLDWSWL-NH2 (H-[dR][dR][dR][dR][dR][dR][dR]LDWSWL-NH2; SMILES CC(C)C[C@H](NC(=O)[C@H](Cc1c[nH]c2ccccc12)NC(=O)[C@H](CO)NC(=O)[C@H](Cc1c[nH]c2ccccc12)NC(=O)[C@H](CC(=O)O)NC(=O)[C@H](CC(C)C)NC(=O)[C@@H](CCCNC(=N)N)NC(=O)[C@@H](CCCNC(=N)N)NC(=O)[C@@H](CCCNC(=N)N)NC(=O)[C@@H](CCCNC(=N)N)NC(=O)[C@@H](CCCNC(=N)N)NC(=O)[C@@H](CCCNC(=N)N)NC(=O)[C@H](N)CCCNC(=N)N)C(N)=O) [compound 8]	–	7 and 8	survival (day five), number of mice surviving [1, 6]: 0
H-YARAARRAARRTALDWSWLQTE-NH2 [compound 5]	–	–	survival (day five), number of mice surviving [1, 6]: 4
H-RRMKWKKTALDWSWLQTE-NH2 [compound 1]	–	–	survival (day five), number of mice surviving [1, 7]: 1
LDWSWA (Description of Artificial Sequence: Synthetic NBD peptide)	yes	–	–
H-YARAARRAARRLDWSWL-NH2 [compound 9]	–	6 and 8	survival (day five), number of mice surviving [1, 6]: 0
H-RRMKWKKLDWSWL-NH2 [compound 6]	–	7 and 5 and 4 and 8	survival (day five), number of mice surviving [1, 6]: 0
H-YGRKKRRQRRRTALDWSWLQTE-NH2 [compound 2]	–	4	survival (day five), number of mice surviving [1, 7]: 7
C[C@@H]1C[C@H]2[C@@H]3CCC4=CC(=O)C=C[C@]4(C)[C@@]3(F)[C@@H](O)C[C@]2(C)[C@@]1(O)C(=O)CO [dexamethasone]	–	–	reduction of NOX in peritoneal exudates [2]: 86±7%; inhibition of PMA-induced ear thickening [3]: 82%
H-yaraarraarrLDWSWL-NH2 (H-[dY][dA][dR][dA][dA][dR][dR][dA][dA][dR][dR]LDWSWL-NH2; SMILES CC(C)C[C@H](NC(=O)[C@H](Cc1c[nH]c2ccccc12)NC(=O)[C@H](CO)NC(=O)[C@H](Cc1c[nH]c2ccccc12)NC(=O)[C@H](CC(=O)O)NC(=O)[C@H](CC(C)C)NC(=O)[C@@H](CCCNC(=N)N)NC(=O)[C@@H](CCCNC(=N)N)NC(=O)[C@@H](C)NC(=O)[C@@H](C)NC(=O)[C@@H](CCCNC(=N)N)NC(=O)[C@@H](CCCNC(=N)N)NC(=O)[C@@H](C)NC(=O)[C@@H](C)NC(=O)[C@@H](CCCNC(=N)N)NC(=O)[C@@H](C)NC(=O)[C@H](N)Cc1ccc(O)cc1)C(N)=O) [compound 10]	–	8 and 6	liver injury by concanavalin A, gross pathology ([4]; 5 mg/kg): prevented; protection against concanavalin A-induced liver damage ([4]; 5 mg/kg): able to protect; ALT [4, 8]: 1919 ± 234 Sigma-Frankel units/ml; AST [4, 8]: 1217 ± 192 Sigma-Frankel units/ml; ALT [4, 9]: 1910 ± 281 Sigma-Frankel units/ml; AST [4, 9]: 1264 ± 270 Sigma-Frankel units/ml; ALT [4, 10]: 72 ± 19 Sigma-Frankel units/ml; AST [4, 10]: 99 ± 14 Sigma-Frankel units/ml; survival (day five), number of mice surviving [1, 6]: 5
H-YGRKKRRQRRRLDWSWL-NH2 [compound 11]	–	6	–
H-rrrrrrrTALDWSWLQTE-NH2 (H-[dR][dR][dR][dR][dR][dR][dR]TALDWSWLQTE-NH2; SMILES CC(C)C[C@H](NC(=O)[C@H](C)NC(=O)[C@@H](NC(=O)[C@@H](CCCNC(=N)N)NC(=O)[C@@H](CCCNC(=N)N)NC(=O)[C@@H](CCCNC(=N)N)NC(=O)[C@@H](CCCNC(=N)N)NC(=O)[C@@H](CCCNC(=N)N)NC(=O)[C@@H](CCCNC(=N)N)NC(=O)[C@H](N)CCCNC(=N)N)[C@@H](C)O)C(=O)N[C@@H](CC(=O)O)C(=O)N[C@@H](Cc1c[nH]c2ccccc12)C(=O)N[C@@H](CO)C(=O)N[C@@H](Cc1c[nH]c2ccccc12)C(=O)N[C@@H](CC(C)C)C(=O)N[C@@H](CCC(N)=O)C(=O)N[C@H](C(=O)N[C@@H](CCC(=O)O)C(N)=O)[C@@H](C)O) [compound 3]	–	5 and 8	survival (day five), number of mice surviving [1, 7]: 7
LDFSWL	yes	–	–
H-YARKARRQARRTALDWSWLQTE-NH2 [compound 4]	–	0	–

Continued, in another order:

Binds to NEMO (NEMO)	Compound	survival (day five), number of mice surviving [1, 5]	further results
no	LDWSAL (Description of Artificial Sequence: Synthetic NBD peptide)	–	–
no	LDWSYL (Description of Artificial Sequence: Synthetic NBD peptide)	–	–
yes	LDYSWL (Description of Artificial Sequence: Synthetic NBD peptide)	–	–
yes	LDWSFL (Description of Artificial Sequence: Synthetic NBD peptide)	–	–
yes	LNWSWL (Description of Artificial Sequence: Synthetic NBD peptide)	–	–
yes	LDWSWL (Description of Artificial Sequence: Synthetic NBD peptide)	–	–
yes	LDWEWL (Description of Artificial Sequence: Synthetic NBD peptide)	–	–
no	LDASAL (Description of Artificial Sequence: Synthetic NBD peptide)	–	–
no	LDASWL (Description of Artificial Sequence: Synthetic NBD peptide)	–	–
yes	ADWSWL	–	–
yes	LDWAWL	–	–
yes	LEWSWL (Description of Artificial Sequence: Synthetic NBD peptide)	–	–
no	LAWSWL (Description of Artificial Sequence: Synthetic NBD peptide)	–	–
